These results are taken from patent US9297813B2, “Targeting metabolic enzymes in human cancer” (Agency for Science, Technology and Research, priority 2010, dated 2016).

The structures appear in SMILES notation.

For assay [1], the system named is cytoplasmic and mitochondrial aspartate aminotransferase. The conditions noted are these: cited from earlier work.
The target of assay [2] is T1, GLDC (Homo sapiens, UniProt P23378).
T1 sequence (P23378 36-1020): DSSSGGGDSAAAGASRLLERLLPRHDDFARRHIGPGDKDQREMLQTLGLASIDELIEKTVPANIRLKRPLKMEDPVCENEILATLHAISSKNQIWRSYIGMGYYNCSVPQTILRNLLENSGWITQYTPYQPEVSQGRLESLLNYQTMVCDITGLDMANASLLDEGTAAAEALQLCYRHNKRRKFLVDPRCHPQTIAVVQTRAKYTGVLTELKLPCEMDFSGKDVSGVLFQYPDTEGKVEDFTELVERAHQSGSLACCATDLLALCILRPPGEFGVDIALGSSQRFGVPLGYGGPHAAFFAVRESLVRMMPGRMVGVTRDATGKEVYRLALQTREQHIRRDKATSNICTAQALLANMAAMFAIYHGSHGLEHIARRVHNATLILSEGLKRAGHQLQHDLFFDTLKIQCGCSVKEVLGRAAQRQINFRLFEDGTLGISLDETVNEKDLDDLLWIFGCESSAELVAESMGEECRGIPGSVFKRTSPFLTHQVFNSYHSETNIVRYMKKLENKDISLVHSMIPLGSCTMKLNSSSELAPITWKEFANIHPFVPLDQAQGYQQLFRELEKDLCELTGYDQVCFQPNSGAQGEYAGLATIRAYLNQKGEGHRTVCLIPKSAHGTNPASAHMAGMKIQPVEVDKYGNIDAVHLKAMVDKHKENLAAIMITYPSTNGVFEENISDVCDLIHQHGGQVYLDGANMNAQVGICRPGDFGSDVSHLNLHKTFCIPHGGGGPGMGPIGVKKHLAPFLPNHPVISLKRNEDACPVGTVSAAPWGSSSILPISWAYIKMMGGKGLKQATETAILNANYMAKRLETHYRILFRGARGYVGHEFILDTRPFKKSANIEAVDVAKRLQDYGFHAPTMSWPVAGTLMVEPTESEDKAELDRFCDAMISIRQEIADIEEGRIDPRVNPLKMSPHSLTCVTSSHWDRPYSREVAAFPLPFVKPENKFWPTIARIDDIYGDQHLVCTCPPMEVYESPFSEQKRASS
The conditions noted are these: cited from earlier work.

Assay [3] has as its target T1, GLDC. The assay can be described thus: Victorin: inhibition of GLDC expression, tumour formation and cell proliferation (no method given).
The next assay relates to 3T3 cells. Put plainly: Adherent colony formation with methotrexate, 3T3 cells overexpressing GLDC. It counts as cell-based, mouse. The conditions noted are these: low doses of methotrexate. The procedure: (§1) (E) Effects of the anti-folate drug methotrexate on colony formation after GLDC overexpression or knockdown. 3T3 and HLF cells overexpressing GLDC were plated at clonal density and exposed to varying concentrations of methotrexate for 8 days. A549 cells with GLDC knockdown were plated in soft agar at clonal density and exposed to varying concentrations of methotrexate for 14 days.
(§2) Adherent colony formation was performed by seeding 200-3000 single cells into 10 cm-culture dish and maintained for 10-14 days in DMEM/10% FBS. Colonies were stained by Wright-Giemsa and those colonies containing more than 50 cells were counted. For methotrexate (Sigma) treatment assay, cells were maintained in growth medium containing serial dilution of methotrexate (0, 0.1, 0.2, 0.5, 1, 2, 5, 10, 20 uM) and fresh medium were changed every 3 days.

For a further assay, the system named is HLF cells. Put plainly: Adherent colony formation with methotrexate, HLF cells overexpressing GLDC. The class given is cell-based, human. As to conditions: low doses of methotrexate. The method, then: as §1, §2
The test system of assay [4] is A549 cells. The assay can be described thus: Soft agar colony formation with methotrexate, A549 cells with GLDC knockdown. It counts as cell-based, human. The conditions noted are these: methotrexate in combination with GLDC shRNA versus either alone, 14 days.
For assay [5], the system named is A549 cells. The assay can be described thus: Soft agar colony formation, sarcosine rescue after GLDC knockdown. It counts as cell-based, human. As to conditions: 10 μM sarcosine. The procedure: (F) Effects of sarcosine on soft agar colony formation after GLDC knockdown in A549 cells. 1000 cells were seeded in soft agar at clonal density and exposed to 10 μM sarcosine for 14 days.
Soft agar assays were conducted as described previously (Viswanathan et al., 2009). We stained colonies with 1% INT and counted them after 3-4 weeks of growth. For sarcosine rescue experiment, 10 μM of sarcosine (sigma) or PBS were added to top cells layer of agar and growth medium containing sarcosine were changed every 3 days before counting colonies.

Turning to `NOCC(=O)O` [Aminooxyacetate, (Aminooxy) acetate], the “inhibition of aspartate aminotransferase or glutamate transaminases” value in assay [1] is on record as “powerful inhibitor”. The “GLDC binding and inhibition of GLDC activity” value on GLDC [2] was “binds to GLDC and inhibits GLDC activity”.

On to `CC(C[C@H](NC(=O)C(O)O)C(=O)N[C@H](C(=O)N[C@@H]1C(=O)N/C(=C/Cl)C(=O)N[C@H](C(=O)O)CC2=C(CC(O)C2=O)O[C@H]1C(C)C)[C@H](O)CCCN)C(Cl)Cl` (some centres unmarked) [Victorin], for which, on GLDC [3], the “inhibition of GLDC expression” value is on record as “able to inhibit GLDC expression”; the “tumour formation and cell proliferation” value was “block or reduced tumour formation and cell proliferation”.

Turning to `CN(Cc1cnc2nc(N)nc(N)c2n1)c1ccc(C(=O)N[C@@H](CCC(=O)O)C(=O)O)cc1` [methotrexate], the “GLDC-induced proliferation (colony formation)” value is “specifically abrogated GLDC-induced proliferation” with 3T3 cells (3T3 cells overexpressing GLDC, 8 days) and “specifically abrogated GLDC-induced proliferation” in the assay on HLF cells (HLF cells overexpressing GLDC, 8 days). Also, the “effect on control cells” value with 3T3 cells (control 3T3 cells) and in the assay with HLF cells (control HLF cells) was “little effects” in each case. Moreover, in the assay with A549 cells [4], the “killing of transformed A549 cells” value is on record as “killed transformed A549 cells much more effectively than either alone”.

Turning to `CNCC(=O)O` [sarcosine, N-methylglycine], in the assay with A549 cells [5] (14 days, A549 cells with GLDC retroviral knockdown), the “rescue of proliferation defect upon GLDC knockdown” value was “significantly rescue the proliferation defect”. Besides, the “effect on control A549 cells” value in the assay on A549 cells [5] (control A549 cells) is “little effect”.
